System: cell lines from the Cancer Cell Line Encyclopedia (CCLE)
Test: High-throughput cell viability assay, CCLE cell line panel (n = 356)
Type: cell-based, human
Method: Cell lines were partitioned into sensitive and insensitive groups based on compound potency (IC50). […] All other cell lines were obtained from ATCC (American Type Culture Collection), DSMZ (Deutsche Sammlung von Mikroorganismen und Zellkulturen), and HSRRB (Health Science Research Resources Bank) and cultured in RPMI or Dulbecco's modified Eagle's medium plus 10% FBS (Invitrogen, Carlsbad, CA) at 37°C, 5% CO2.

[1] = PE/CA-PJ34 (clone C12), TP53 MUT
[2] = cell line A172, central_nervous_system, TP53 WT
[3] = cell line BICR 31, upper_aerodigestive_tract, TP53 MUT
[4] = cell line CAL-85-1, breast, TP53 MUT
[5] = cell line CAMA-1, breast, TP53 MUT
[6] = cell line CCK-81, large_intestine, TP53 MUT
[7] = cell line COV504, ovary, TP53 MUT
[8] = cell line Capan-2, pancreas, TP53 WT
[9] = cell line ES-2, ovary, TP53 MUT
[10] = cell line ESS-1, endometrium, TP53 MUT
[11] = cell line HEC-108, endometrium, TP53 MUT
[12] = cell line HEC-265, endometrium, TP53 WT
[13] = cell line HSC-2, upper_aerodigestive_tract, TP53 MUT
[14] = cell line Hs 618.T, lung, TP53 WT
[15] = cell line Hs 888.T, bone, TP53 WT
[16] = cell line Hs 944.T, skin, TP53 WT
[17] = cell line IM95, stomach, TP53 WT

COc1cc2c(cc1OC(C)C)[C@H](c1ccc(Cl)cc1)N(c1ccc(N(C)C[C@H]3CC[C@H](N4CCNC(=O)C4)CC3)cc1)C(=O)C2 [NVP-CFC218]
Amax (ONS-76, TP53 WT): -16.12%
sensitivity call (ONS-76, TP53 WT): insensitive (Sensitivity call for each compound was applied according to a cut-off of 4 µM for IC50 and -50% for Amax)
Amax (OV-90, TP53 MUT): -1.39%
sensitivity call (OV-90, TP53 MUT): insensitive (Sensitivity call for each compound was applied according to a cut-off of 4 µM for IC50 and -50% for Amax)
Amax (P3HR-1, TP53 MUT): -48.91%
sensitivity call (P3HR-1, TP53 MUT): insensitive (Sensitivity call for each compound was applied according to a cut-off of 4 µM for IC50 and -50% for Amax)
Amax (P31/FUJ, TP53 MUT): 4.23%
sensitivity call (P31/FUJ, TP53 MUT): insensitive (Sensitivity call for each compound was applied according to a cut-off of 4 µM for IC50 and -50% for Amax)
Amax (PA-TU-8902, TP53 MUT): 0.96%
sensitivity call (PA-TU-8902, TP53 MUT): insensitive (Sensitivity call for each compound was applied according to a cut-off of 4 µM for IC50 and -50% for Amax)
Amax [1]: 1.01%
sensitivity call [1]: insensitive (Sensitivity call for each compound was applied according to a cut-off of 4 µM for IC50 and -50% for Amax)
Amax (PK-45H, TP53 WT): -18.84%
sensitivity call (PK-45H, TP53 WT): insensitive (Sensitivity call for each compound was applied according to a cut-off of 4 µM for IC50 and -50% for Amax)
Amax (PL-21, TP53 MUT): -37.95%
sensitivity call (PL-21, TP53 MUT): insensitive (Sensitivity call for each compound was applied according to a cut-off of 4 µM for IC50 and -50% for Amax)
Amax (QGP-1, TP53 WT): 6.30%
sensitivity call (QGP-1, TP53 WT): insensitive (Sensitivity call for each compound was applied according to a cut-off of 4 µM for IC50 and -50% for Amax)
Amax (Raji, TP53 MUT): -0.41%
sensitivity call (Raji, TP53 MUT): insensitive (Sensitivity call for each compound was applied according to a cut-off of 4 µM for IC50 and -50% for Amax)
Amax (SCC-4, TP53 MUT): -11.24%
sensitivity call (SCC-4, TP53 MUT): insensitive (Sensitivity call for each compound was applied according to a cut-off of 4 µM for IC50 and -50% for Amax)
Amax (SCC-9, TP53 MUT): 10.57%
sensitivity call (SCC-9, TP53 MUT): insensitive (Sensitivity call for each compound was applied according to a cut-off of 4 µM for IC50 and -50% for Amax)
Amax (SK-N-FI, TP53 MUT): -7.80%
sensitivity call (SK-N-FI, TP53 MUT): insensitive (Sensitivity call for each compound was applied according to a cut-off of 4 µM for IC50 and -50% for Amax)
Amax (SNU-475, TP53 MUT): -7.74%
sensitivity call (SNU-475, TP53 MUT): insensitive (Sensitivity call for each compound was applied according to a cut-off of 4 µM for IC50 and -50% for Amax)
Amax (SU-DHL-8, TP53 MUT): 11.70%
sensitivity call (SU-DHL-8, TP53 MUT): insensitive (Sensitivity call for each compound was applied according to a cut-off of 4 µM for IC50 and -50% for Amax)
Amax (SW579, TP53 MUT): -2.22%
sensitivity call (SW579, TP53 MUT): insensitive (Sensitivity call for each compound was applied according to a cut-off of 4 µM for IC50 and -50% for Amax)
Amax (SW 1271, TP53 MUT): -7.26%
sensitivity call (SW 1271, TP53 MUT): insensitive (Sensitivity call for each compound was applied according to a cut-off of 4 µM for IC50 and -50% for Amax)
Amax (SW 1990, TP53 MUT): -0.73%
sensitivity call (SW 1990, TP53 MUT): insensitive (Sensitivity call for each compound was applied according to a cut-off of 4 µM for IC50 and -50% for Amax)
Amax (TE-1, TP53 MUT): -0.82%
sensitivity call (TE-1, TP53 MUT): insensitive (Sensitivity call for each compound was applied according to a cut-off of 4 µM for IC50 and -50% for Amax)
Amax (TE-5, TP53 MUT): 31.38%
sensitivity call (TE-5, TP53 MUT): insensitive (Sensitivity call for each compound was applied according to a cut-off of 4 µM for IC50 and -50% for Amax)
Amax (U-87 MG, TP53 WT): -45.86%
sensitivity call (U-87 MG, TP53 WT): insensitive (Sensitivity call for each compound was applied according to a cut-off of 4 µM for IC50 and -50% for Amax)
Amax (WM-266-4, TP53 WT): -75.96%
sensitivity call (WM-266-4, TP53 WT): sensitive (Sensitivity call for each compound was applied according to a cut-off of 4 µM for IC50 and -50% for Amax)
Amax (WM-983B, TP53 MUT): -25.79%
sensitivity call (WM-983B, TP53 MUT): insensitive (Sensitivity call for each compound was applied according to a cut-off of 4 µM for IC50 and -50% for Amax)
Amax (YKG1, TP53 MUT): -29.61%
sensitivity call (YKG1, TP53 MUT): insensitive (Sensitivity call for each compound was applied according to a cut-off of 4 µM for IC50 and -50% for Amax)
NVP- CFC218 Amax (%) [2]: -49.68%
NVP- CFC218 sensitivity call [2]: insensitive (Sensitivity call for each compound was applied according to a cut-off of 4 µM for IC50 and -50% for Amax)
NVP- CFC218 Amax (%) [3]: -33.34%
NVP- CFC218 sensitivity call [3]: insensitive (Sensitivity call for each compound was applied according to a cut-off of 4 µM for IC50 and -50% for Amax)
NVP- CFC218 Amax (%) (cell line C3A, liver, TP53 WT): -7.36%
NVP- CFC218 sensitivity call (cell line C3A, liver, TP53 WT): insensitive (Sensitivity call for each compound was applied according to a cut-off of 4 µM for IC50 and -50% for Amax)
NVP- CFC218 Amax (%) (cell line C32, skin, TP53 WT): -3.08%
NVP- CFC218 sensitivity call (cell line C32, skin, TP53 WT): insensitive (Sensitivity call for each compound was applied according to a cut-off of 4 µM for IC50 and -50% for Amax)
NVP- CFC218 Amax (%) [4]: -3.57%
NVP- CFC218 sensitivity call [4]: insensitive (Sensitivity call for each compound was applied according to a cut-off of 4 µM for IC50 and -50% for Amax)
NVP- CFC218 Amax (%) [5]: -26.17%
NVP- CFC218 sensitivity call [5]: insensitive (Sensitivity call for each compound was applied according to a cut-off of 4 µM for IC50 and -50% for Amax)
NVP- CFC218 Amax (%) [6]: 4.13%
NVP- CFC218 sensitivity call [6]: insensitive (Sensitivity call for each compound was applied according to a cut-off of 4 µM for IC50 and -50% for Amax)
NVP- CFC218 Amax (%) [7]: -21.97%
NVP- CFC218 sensitivity call [7]: insensitive (Sensitivity call for each compound was applied according to a cut-off of 4 µM for IC50 and -50% for Amax)
NVP- CFC218 Amax (%) [8]: -4.99%
NVP- CFC218 sensitivity call [8]: insensitive (Sensitivity call for each compound was applied according to a cut-off of 4 µM for IC50 and -50% for Amax)
NVP- CFC218 Amax (%) [9]: -22.65%
NVP- CFC218 sensitivity call [9]: insensitive (Sensitivity call for each compound was applied according to a cut-off of 4 µM for IC50 and -50% for Amax)
NVP- CFC218 Amax (%) [10]: 0.05%
NVP- CFC218 sensitivity call [10]: insensitive (Sensitivity call for each compound was applied according to a cut-off of 4 µM for IC50 and -50% for Amax)
NVP- CFC218 Amax (%) [11]: -7.25%
NVP- CFC218 sensitivity call [11]: insensitive (Sensitivity call for each compound was applied according to a cut-off of 4 µM for IC50 and -50% for Amax)
NVP- CFC218 Amax (%) [12]: -37.19%
NVP- CFC218 sensitivity call [12]: insensitive (Sensitivity call for each compound was applied according to a cut-off of 4 µM for IC50 and -50% for Amax)
NVP- CFC218 Amax (%) [13]: 8.13%
NVP- CFC218 sensitivity call [13]: insensitive (Sensitivity call for each compound was applied according to a cut-off of 4 µM for IC50 and -50% for Amax)
NVP- CFC218 Amax (%) [14]: -49.34%
NVP- CFC218 sensitivity call [14]: insensitive (Sensitivity call for each compound was applied according to a cut-off of 4 µM for IC50 and -50% for Amax)
NVP- CFC218 Amax (%) [15]: -45.50%
NVP- CFC218 sensitivity call [15]: insensitive (Sensitivity call for each compound was applied according to a cut-off of 4 µM for IC50 and -50% for Amax)
NVP- CFC218 Amax (%) [16]: -32.86%
NVP- CFC218 sensitivity call [16]: insensitive (Sensitivity call for each compound was applied according to a cut-off of 4 µM for IC50 and -50% for Amax)
NVP- CFC218 Amax (%) [17]: 33.79%
NVP- CFC218 sensitivity call [17]: insensitive (Sensitivity call for each compound was applied according to a cut-off of 4 µM for IC50 and -50% for Amax)
NVP- CFC218 Amax (%) (cell line JHOS-2, ovary, TP53 MUT): -32.44%

— article PMC4468608, “A distinct p53 target gene set predicts for response to the selective p53–HDM2 inhibitor NVP-CGM097” (eLife, 2015)
